Test results: PubChem BioAssay (NCI)
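Following 48 hours of exposure in 96-well plates, responses at five concentrations were used to interpolate endpoints linearly. Definition used: TGI = concentration required for complete inhibition of growth.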

Experiments:
Test in all cases: NCI-60 cell line screen, 48 h
NCI-H522 lung = test system: NCI-H522 lung
HCT-116 colon = test system: HCT-116 colon
SNB-19 CNS = test system: SNB-19 CNS
SK-OV-3 ovarian = test system: SK-OV-3 ovarian
U251 CNS = test system: U251 CNS
SK-MEL-2 melanoma = test system: SK-MEL-2 melanoma
UACC-257 melanoma = test system: UACC-257 melanoma
SF-295 CNS = test system: SF-295 CNS
SF-268 CNS = test system: SF-268 CNS
OVCAR-8 ovarian = test system: OVCAR-8 ovarian
SN12C renal = test system: SN12C renal
MDA-MB-435 = test system: MDA-MB-435
SK-MEL-5 melanoma = test system: SK-MEL-5 melanoma
IGROV1 ovarian = test system: IGROV1 ovarian
HCC-2998 colon = test system: HCC-2998 colon
HCT-15 colon = test system: HCT-15 colon
MDA-MB-231 breast = test system: MDA-MB-231 breast
TK-10 renal = test system: TK-10 renal
NCI/ADR-RES ovarian = test system: NCI/ADR-RES ovarian
SF-539 CNS = test system: SF-539 CNS
ACHN renal = test system: ACHN renal
NCI-H226 lung = test system: NCI-H226 lung
MOLT-4 leukemia = test system: MOLT-4 leukemia
HOP-62 NSCLC = test system: HOP-62 NSCLC
HT29 colon = test system: HT29 colon
T-47D breast = test system: T-47D breast
A549 NSCLC = test system: A549 NSCLC
COLO 205 colon = test system: COLO 205 colon
HL-60(TB) leukemia = test system: HL-60(TB) leukemia
OVCAR-5 ovarian = test system: OVCAR-5 ovarian
OVCAR-3 ovarian = test system: OVCAR-3 ovarian
MDA-N = test system: MDA-N
PC-3 prostate = test system: PC-3 prostate
M14 melanoma = test system: M14 melanoma
BT-549 breast = test system: BT-549 breast
RPMI-8226 leukemia = test system: RPMI-8226 leukemia
786-0 renal = test system: 786-0 renal
A498 renal = test system: A498 renal
OVCAR-4 ovarian = test system: OVCAR-4 ovarian
CAKI-1 renal = test system: CAKI-1 renal
NCI-H460 lung = test system: NCI-H460 lung
MCF7 breast = test system: MCF7 breast
UO-31 renal = test system: UO-31 renal
LOX IMVI melanoma = test system: LOX IMVI melanoma
CCRF-CEM leukemia = test system: CCRF-CEM leukemia
K-562 leukemia = test system: K-562 leukemia
UACC-62 melanoma = test system: UACC-62 melanoma
EKVX NSCLC = test system: EKVX NSCLC
HS 578T breast = test system: HS 578T breast
SW-620 colon = test system: SW-620 colon
MALME-3M melanoma = test system: MALME-3M melanoma
SR leukemia = test system: SR leukemia
NCI-H23 lung = test system: NCI-H23 lung
KM12 colon = test system: KM12 colon
SK-MEL-28 melanoma = test system: SK-MEL-28 melanoma
DU-145 prostate = test system: DU-145 prostate
HOP-92 NSCLC = test system: HOP-92 NSCLC
SNB-75 CNS = test system: SNB-75 CNS
RXF 393 renal = test system: RXF 393 renal

Compound: COc1ccc(CCN2CCN(CCCc3ccccc3)CC2)cc1
- TGI (NCI-H522 lung): > 100 µM
- TGI (HCT-116 colon): > 100 µM
- TGI (SNB-19 CNS): > 100 µM
- TGI (SK-OV-3 ovarian): > 100 µM
- TGI (U251 CNS): > 100 µM
- TGI (SK-MEL-2 melanoma): > 100 µM
- TGI (UACC-257 melanoma): > 100 µM
- TGI (SF-295 CNS): > 100 µM
- TGI (SF-268 CNS): > 100 µM
- TGI (OVCAR-8 ovarian): > 100 µM
- TGI (SN12C renal): > 100 µM
- TGI (MDA-MB-435): > 100 µM
- TGI (SK-MEL-5 melanoma): 56.9 µM
- TGI (IGROV1 ovarian): > 100 µM
- TGI (HCC-2998 colon): > 100 µM
- TGI (HCT-15 colon): > 100 µM
- TGI (MDA-MB-231 breast): > 100 µM
- TGI (TK-10 renal): > 100 µM
- TGI (NCI/ADR-RES ovarian): > 100 µM
- TGI (SF-539 CNS): > 100 µM
- TGI (ACHN renal): > 100 µM
- TGI (NCI-H226 lung): > 100 µM
- TGI (MOLT-4 leukemia): > 100 µM
- TGI (HOP-62 NSCLC): > 100 µM
- TGI (HT29 colon): > 100 µM
- TGI (T-47D breast): > 100 µM
- TGI (A549 NSCLC): > 100 µM
- TGI (COLO 205 colon): 54.3 µM
- TGI (HL-60(TB) leukemia): > 100 µM
- TGI (OVCAR-5 ovarian): > 100 µM
- TGI (OVCAR-3 ovarian): > 100 µM
- TGI (MDA-N): > 100 µM
- TGI (PC-3 prostate): > 100 µM
- TGI (M14 melanoma): > 100 µM
- TGI (BT-549 breast): > 100 µM
- TGI (RPMI-8226 leukemia): > 100 µM
- TGI (786-0 renal): > 100 µM
- TGI (A498 renal): > 100 µM
- TGI (OVCAR-4 ovarian): > 100 µM
- TGI (CAKI-1 renal): > 100 µM
- TGI (NCI-H460 lung): > 100 µM
- TGI (MCF7 breast): > 100 µM
- TGI (UO-31 renal): > 100 µM
- TGI (LOX IMVI melanoma): > 100 µM
- TGI (CCRF-CEM leukemia): > 100 µM
- TGI (K-562 leukemia): > 100 µM
- TGI (UACC-62 melanoma): > 100 µM
- TGI (EKVX NSCLC): > 100 µM
- TGI (HS 578T breast): > 100 µM
- TGI (SW-620 colon): > 100 µM
- TGI (MALME-3M melanoma): > 100 µM
- TGI (SR leukemia): > 100 µM
- TGI (NCI-H23 lung): > 100 µM
- TGI (KM12 colon): > 100 µM
- TGI (SK-MEL-28 melanoma): > 100 µM
- TGI (DU-145 prostate): > 100 µM

Compound: COC(=O)Nc1nc2ccc(NS(=O)(=O)c3cccs3)cc2[nH]1
- TGI (NCI-H522 lung): 29.9 µM
- TGI (HCT-116 colon): 47.5 µM
- TGI (SNB-19 CNS): > 100 µM
- TGI (SK-OV-3 ovarian): 90.6 µM
- TGI (U251 CNS): > 100 µM
- TGI (SK-MEL-2 melanoma): > 100 µM
- TGI (SF-295 CNS): 70.9 µM
- TGI (SF-268 CNS): > 100 µM
- TGI (HOP-92 NSCLC): 70.4 µM
- TGI (OVCAR-8 ovarian): > 100 µM
- TGI (SN12C renal): > 100 µM
- TGI (MDA-MB-435): 21.4 µM
- TGI (SK-MEL-5 melanoma): > 100 µM
- TGI (IGROV1 ovarian): 39.7 µM
- TGI (HCT-15 colon): > 100 µM
- TGI (MDA-MB-231 breast): > 100 µM
- TGI (TK-10 renal): 68 µM
- TGI (NCI/ADR-RES ovarian): 85.3 µM
- TGI (SF-539 CNS): > 100 µM
- TGI (ACHN renal): > 100 µM
- TGI (NCI-H226 lung): > 100 µM
- TGI (MOLT-4 leukemia): 77.4 µM
- TGI (HOP-62 NSCLC): 82.4 µM
- TGI (HT29 colon): > 100 µM
- TGI (T-47D breast): 85.3 µM
- TGI (A549 NSCLC): > 100 µM
- TGI (COLO 205 colon): > 100 µM
- TGI (HL-60(TB) leukemia): 55.5 µM
- TGI (OVCAR-5 ovarian): > 100 µM
- TGI (OVCAR-3 ovarian): 49.2 µM
- TGI (MDA-N): 16.8 µM
- TGI (PC-3 prostate): > 100 µM
- TGI (M14 melanoma): 76 µM
- TGI (BT-549 breast): > 100 µM
- TGI (RPMI-8226 leukemia): > 100 µM
- TGI (786-0 renal): > 100 µM
- TGI (A498 renal): 91.7 µM
- TGI (OVCAR-4 ovarian): > 100 µM
- TGI (CAKI-1 renal): > 100 µM
- TGI (SNB-75 CNS): 67.8 µM
- TGI (NCI-H460 lung): > 100 µM
- TGI (MCF7 breast): 70.4 µM
- TGI (UO-31 renal): > 100 µM
- TGI (LOX IMVI melanoma): > 100 µM
- TGI (CCRF-CEM leukemia): > 100 µM
- TGI (K-562 leukemia): > 100 µM
- TGI (RXF 393 renal): 85.8 µM
- TGI (UACC-62 melanoma): > 100 µM
- TGI (EKVX NSCLC): 73.7 µM
- TGI (HS 578T breast): 36.4 µM
- TGI (SW-620 colon): > 100 µM
- TGI (MALME-3M melanoma): 54.7 µM
- TGI (NCI-H23 lung): > 100 µM
- TGI (KM12 colon): 89.5 µM
- TGI (SK-MEL-28 melanoma): > 100 µM
- TGI (DU-145 prostate): > 100 µM
